Reference: patent publication US20250255867A1 (Kadmon Corporation, LLC, priority 2022, published 2025)

Legend:
Format in all cases: in vivo, human
patients with cGVHD = assay: Example 1 phase IIa dose-finding study: cGVHD response per 2014 NIH Consensus Criteria (ORR, BOR, DOR, TTR, organ response); conditions: for DOR Median (95% CI): responder population
Description: Eligible patients were allogeneic bone marrow transplant or allogeneic hematopoietic cell transplant (alloHCT) recipients of age ≥18 years with persistent cGVHD manifestations after having received one to three prior systemic lines of therapy and who were receiving corticosteroid treatment with or without a calcineurin inhibitor and/or concurrent extracorporeal photopheresis.
(FIG. 1) Before enrollment of the subsequent cohort, safety data in each previous cohort were analyzed after eight patients reached two months of treatment to assure that there was no safety signal. […] No safety concerns were identified, allowing for planned dose escalation.
Progression was defined per the 2014 NIH cGVHD Consensus Criteria. Long-term follow-up was conducted every 8 weeks until study closeout. […] Screening was conducted within 28 days of the first study dose. Response was initially assessed after two cycles; however, this was amended to evaluate response on day 1 of each cycle, starting at cycle 2 day 1.
All responses were assessed by the investigators.
Percentage of Participants With Overall Response (OR): OR was defined as the percentage of participants with complete response (CR) or partial response (PR). The OR determination of chronic graft versus host disease (cGVHD) was based on cGVHD response assessment performed by clinicians as per the 2014 National Institutes of Health (NIH) Consensus Development Project for Clinical Trials in cGVHD criteria. CR was defined as the resolution of all manifestations in each organ or site. PR was defined as the improvement in at least 1 organ or site without progression in any other organ or site; and cGVHD progression was defined as the clinically meaningful worsening in 1 or more organs regardless of improvement in other organs.
Duration of Response (DOR). The DOR was defined as the time (in weeks) from first documentation of response to the time of first documentation of deterioration from best response (e.g., CR to PR, or PR to […]). LOR included the response status of unchanged (LOR-U), mixed (LOR-M), or progression (LOR-P). […] Kaplan-Meier was used for the analysis.
Best Overall Response (BOR). BOR was defined as the participants with either a CR or PR or lack of response (LOR), where LOR included the response status of unchanged (LOR-U), mixed (LOR-M), or progression (LOR-P). BOR was assessed per the 2014 NIH Consensus Development Project for Clinical Trials in cGVHD criteria. […] Analysis was performed on mITT population.
Best Response in Each Individual Organ. Best response was defined as the percentage of participants with CR or PR. Response was assessed per the 2014 NIH Consensus Development Project for Clinical Trials in cGVHD criteria; CR was defined as the resolution of all manifestations in each organ or site; PR was defined as the improvement in at least 1 organ or site without progression in any other organ or site. Organ response assessment was performed on 9 individual organs: skin, eyes, mouth, esophagus, upper GI, lower GI, liver, lungs, and joints and fascia. […] Analysis was performed on mITT population. Here, ‘number analyzed’=participants with available data for each specified category.

subjects with cGVHD = assay: Example 2: corticosteroid and other immunosuppressant reduction/discontinuation
Description: All responses were assessed by the study site investigators.

subjects with BOS = assay: Example 3: FEV1 evaluation in BOS
Description: Patients with BOS were identified as: 1) % predicted forced expiratory volume in 1 second (% FEV1) of £79% at enrollment, and 2) clinician attribution of lung disease due to cGVHD.
In Example 1, lung function assessments were conducted at baseline and on Day 1 of each cycle for patients with suspected of known lung involvement. In Example 2, lung function assessments were conducted at baseline and at the time of response assessments: Day 1 of cycles 2-5 and then on Day 1 of every other cycle thereafter.

[1] = Cohort 1 200 mg QD, 17 analyzed
[2] = Cohort 2 200 mg BID, 16 analyzed
[3] = Cohort 3 400 mg QD, 21 analyzed
[4] = 200 mg daily (n = 66), mITT population
[5] = 200 mg twice daily (n = 66), mITT population
[6] = Total (N = 132), mITT population

## CC(C)NC(=O)COc1cccc(-c2nc(Nc3ccc4[nH]ncc4c3)c3ccccc3n2)c1 [Belumosudil, 2-{3-[4-(1H-indazol-5-ylamino)-2-quinazolinyl]phenoxy}-N-(propan-2-yl) acetamide]
Patients with cGVHD; Cohort 1 200 mg QD
  Best response (CR or PR) in skin, percentage of participants: (23%)
  Best response in esophagus, percentage of participants: (50%)
  Best response in joints and fascia, percentage of participants: (55%)
  ORR, % (95% CI): 65%
  ORR, refractory to previous LOT: 7/11 (64, 31 to %
  ORR, severe cGVHD: 8/12 (67, 35 to %
  ORR, ≤2 prior LOTs subgroup: 10/15 (67, 38 to %
  ORR, ≤4 organs involved: 4/8 (50, 16 to %
  DOR Median (95% CI): 40 (8-na* %) weeks
Patients with cGVHD; [1]
  BOR: CR: 0 participants
  BOR: LOR-P: 2 participants
  BOR: LOR-U: 2 participants
  BOR: PR: 11 participants
Patients with cGVHD; Cohort 1 200 mg QD, listed as KD025
  ORR, % (95% CI): 65 (38 to 86) %
Patients with cGVHD; Cohort 2 200 mg BID
  Best response (CR or PR) in skin, percentage of participants: (17%)
  Best response in liver, percentage of participants: (50%)
  ORR, % (95% CI): 69%
  ORR, refractory to previous LOT: 6/9 (67, 30 to %
  ORR, severe cGVHD: 9/14 (64, 35 to %
  ORR, ≤2 prior LOTs subgroup: 5/8 (63, 25 to %
  ORR, ≤4 organs involved: 8/10 (80, 44 to %
  DOR Median (95% CI): 11 (2-35%) weeks
Patients with cGVHD; [2]
  BOR: CR: 0 participants
  BOR: LOR-P: 1 participants
  BOR: LOR-U: 3 participants
  BOR: PR: 11 participants
Patients with cGVHD; Cohort 2 200 mg BID, listed as KD025
  ORR, % (95% CI): 69 (41 to 89) %
Patients with cGVHD; Cohort 3 400 mg QD
  ORR, % (95% CI): 57%
  ORR, refractory to previous LOT: 9/15 (60, 32 to %
  ORR, severe cGVHD: 8/16 (50, 25 to %
  ORR, ≤2 prior LOTs subgroup: 8/12 (67, 35 to %
  ORR, ≤4 organs involved: 7/9 (78, 40 to %
Patients with cGVHD; [3]
  BOR: CR: 0 participants
  BOR: LOR-M: 0 participants
  BOR: LOR-P: 1 participants
  BOR: LOR-U: 4 participants
  BOR: PR: 12 participants
Patients with cGVHD; Total
  ORR, refractory to previous LOT: 63%
  ORR, severe cGVHD: 60%
  ORR, ≤2 prior LOTs subgroup: 66%
  ORR, ≤4 organs involved: 70%
Patients with cGVHD; Total N=54, listed as KD025
  ORR, % (95% CI): 65 (51 to 77) %
Patients with cGVHD; Total, listed as KD025
  ORR, refractory to previous LOT: 22/35 (63, 45 to %
  ORR, severe cGVHD: 25/42 (60, 43 to %
  ORR, ≤2 prior LOTs subgroup: 23/35 (66, 48 to %
  ORR, ≤4 organs involved: 19/27 (70, 50 to %
Patients with cGVHD; pooled cohorts
  ORR among patients with nonsevere cGVHD: 83%
Subjects with cGVHD; 200 mg daily
  Mean change in CS dose from baseline, Nonresponder: −22%
  Mean change in CS dose from baseline, Responder: −49%
Subjects with cGVHD; [4]
  CS discontinuation: 13 (20) n (%)
  Mean change in CS dose from baseline, Overall: −43%
  Median CS reduction from baseline to greatest reduction: 38%
  Proportion with CS reduction: 42 (64) n (%)
Subjects with cGVHD; 200 mg twice daily
  Mean change in CS dose from baseline, Nonresponder: −10%
  Mean change in CS dose from baseline, Responder: −58%
Subjects with cGVHD; [5]
  Mean change in CS dose from baseline, Overall: −48%
  Median CS reduction from baseline to greatest reduction: 50%
Subjects with cGVHD; Total
  Mean change in CS dose from baseline, Nonresponder: −16%
  Mean change in CS dose from baseline, Responder: −54%
Subjects with cGVHD; [6]
  Mean change in CS dose from baseline, Overall: −45%
  Median CS reduction from baseline to greatest reduction: 50%
Subjects with cGVHD; in vivo
  Subjects who discontinued CNI therapy: 22%
  Subjects who discontinued mycophenolate mofetil: 21%
  Subjects who discontinued sirolimus: 20%
Subjects with cGVHD; mITT
  Mean corticosteroid dose reduction: 45%
Subjects with cGVHD; responders
  Mean corticosteroid dose reduction: 54%
Subjects with BOS; 59 subjects
  Subjects with ^3 5% absolute improvement in % FEV1 from baseline: 39%
  Subjects with ^3 10% absolute improvement in % FEV1 from baseline: 22%
Subjects with BOS; Example 2 subjects only
  Subjects with at least a 200 mL improvement in FEV1 from baseline: 36%
Subjects with BOS; baseline NIH lung score 1
  Subjects with ^3 5% absolute improvement in % FEV1: 57%
Subjects with BOS; baseline NIH lung score 2
  Subjects with ^3 5% absolute improvement in % FEV1: 13%
Subjects with BOS; baseline NIH lung score 3
  Subjects with ^3 5% absolute improvement in % FEV1: 50%
Subjects with BOS; baseline lung score 1
  Subjects with at least a 200 mL improvement in FEV1: 41%
Subjects with BOS; baseline lung score 2
  Subjects with at least a 200 mL improvement in FEV1: 31%
Subjects with BOS; non-responders
  Subjects with 200 mL improvement in FEV1: 19%
  Subjects with ^3 5% absolute improvement in % FEV1: 18%
Subjects with BOS; responders by NIH criteria
  Subjects with 200 mL improvement in FEV1: 66%
  Subjects with ^3 5% absolute improvement in % FEV1: 84%
